Measured values: patent publication US7629318B2, “Immunosuppressant compounds, methods and uses related thereto” (priority 2002, dated 2009)
Numbered stars: 1 amine (or outer) side, 2 acyl side, 3 side chain; on linkers, the order of the positions; unused ones are H or OH. Square brackets hold non-standard residues; d marks the D form. Peptide text beside a SMILES is read from it. * marks the point of attachment. ξ: configuration not given here. Gly(1-amidinopiperidin-4-yl) = N=C(N)N1CCC([C@H](N)C(=O)O)CC1; X1 = CC(C)c1oc([C@H](CO)N[*:1])nc1C(=O)[*:2]; Pro(3R-Ph) = O=C(O)[C@H]1NCC[C@@H]1c1ccccc1; Tic = O=C(O)[C@@H]1Cc2ccccc2CN1; Cha = N[C@@H](CC1CCCCC1)C(=O)O; NMe(benzyl) = CN(Cc1ccccc1)*; ξDisc = O=C(O)C1NCc2ccccc21; Nle = CCCC[C@H](N)C(=O)O; X2 = OCCOCCN(Cc1ccccc1)*; NHBn = c1ccc(CN*)cc1; X3 = OCCOCCN*

Legend:
[1] = system: T cell activation from 0401(DR4) chimeric MHCII-mice; experiment: In vivo inhibition of T cell activation by co-immunisation, DR4 mice immunised with HEL; design: species or system mouse; % Reduction of response to PPD(HEL): concentration or dose not given beside the values; details: for % Reduction of response to HEL: DR4 mice co-immunised with HEL plus compound, mean % inhibition from the control over 3 concentrations of antigen (6.7, 20 and 60 ug); for % Reduction of response to PPD(HEL): specificity control: response to PPD in the same cell pool, HEL co-immunised mice
Text: (§1) Mouse strains DR4 and DR14 carry chimeric MHC-II transgenes that encode the N-terminal domains of the respective DR molecules (forming the peptide binding site) and the remaining (2nd extracellular domains, transmembrane and intracytoplasmic domains) of the murine class II molecule I Ed. These strains are deficient of other murine class II, and thus, all helper T cell responses are triggered by peptides presented in the respective human MHC-II binding site. As an initial in vivo test of subject inhibitors designed to bind to DR, DR-transgenic mice were co-immunized with a pre-defined dose of protein antigen and different amounts of the compound antagonist to be tested. In this set-up, both antigen and compound were emulsified together in complete Freund's adjuvant (CFA), and thus, a direct competition between the two components for presentation by DR was tested. Readout of the assay is ex vivo antigen-specific activation of T cells from regional lymph nodes explanted 9 days after co-immunization. In a typical experiment, antigen dose-response was investigated, and the curves from mice immunized with antigen were compared to those from mice co-immunized with antigen+compound. The dose response curves were generated using lymph node cells pooled at equal numbers from 2-3 mice per experimental group. The experimental system also permits assessment of inherent antigenicity of the compound antagonist. This was done by setting up a dose-response study from the same cell pool using different concentrations of the compund under investigation instead of the antigen. As a specificity control, the response to Purified Protein Derivative (PPD), the major protein component of CFA, was tested in the same cell pool.
(§2) All Gpg conataining compounds have significant immunosupressive properties in one or both of the in-vivo models. Gpg-containing compounds also show improved activity or improved specificity over the Arg-containing equivilent. Further, compounds according to Formula I show activity in this assay.
(§3) Compounds of the invention were injected as an Emulsion prepared using CFA (Bacto Adjuvant Complete H37 Ra, Difco, Order-No. 3113-60); proteins 10 mg/ml in PBS, inhibitors 5 μM in 10% DMSO. CFA, PBS, antigen, and inhibitor were placed in the barrel of a 5-ml syringe (total volume not more than 1 mL). The mixture was sonicated at an amplitude less than 40% (30-35%) for two separated 15 s periods. The emulsion should seem to be hard and not liquid at this point. A drop of emulsion placed on the surface of water should not melt. The resulting emulsion was pushed through the needle into a 1 ml syringe with a needle (Gr.18, 26G×1″), and air bubbles were removed. Mice were co-immunized with 50 μg protein and 210 nM compound antagonist in final 100 μl emulsion into the tail base. Antigen+Compound and CFA are mixed 1:1 vol/vol. The best results are obtained using DR 4 mice immunised with HEL and DR 14 mice immunized with OVA.
(§4) Mice were injected at the tail-base as follows: Holding the tail of a mouse with thumb and middle finger, the index finger was placed under the base of the mouse's tail. The needle of the syringe was inserted about 1.5 cm from the tail base (hairy end) under the skin and pushed about 1 cm into the tail. 100 μl emulsion was injected into the mouse. After 9 days, mice were killed and lymph nodes removed.
(§5) The inhibitory effect of the candidate compounds on T-cell activation was tested using T-cells and antigen-presenting cells isolated from the lymph nodes of chimeric DR4-IE transgenic mice (Taconic, USA) previously co-immunized with hen egg lysozyme plus compound, or DR14-IE transgenic mice co-immunized with ovalbumin plus compound according to standard procedures (Adorini et al., 1988, Mueller et al., 1990; Current Protocols in Immunology, Vol. 2, 7.21; Ito et al., 1996). […]

[2] = system: T cell activation from 0404(DR14) chimeric MHCII-mice; experiment: In vivo inhibition of T cell activation by co-immunisation, DR14 mice immunised with OVA; design: species or system mouse; % Reduction of response to PPD(OVA): concentration or dose not given beside the values; details: for % Reduction of response to OVA: DR14 mice co-immunised with OVA plus compound, mean % inhibition from the control over 3 concentrations of antigen (6.7, 20 and 60 ug); for % Reduction of response to PPD(OVA): specificity control: response to PPD in the same cell pool, OVA co-immunised mice
Text: as §1, §2, §3, §4, §5

[3] = system: HLA-DR1 transgenic mice, collagen induced arthritis; experiment: Collagen induced arthritis (CIA) mouse model for rheumatoid arthritis; format: in vivo; details: compared to solvent as control; s.c.
Protocol: CIA is induced by immunization with type II collagen in HLA-DR1 transgenic mice as described by Rosloniec et al (J. Exp. Med. 1997; 185: 113). After disease onset, mice are treated with compounds at the maximal tolerated dose s.c. for two weeks, and the disease development compared to that in mice treated with solvent only as follows:
Disease Severity Score • 1. Erythema and mild swelling confined to the tarsals or ankle joint • 2. Erythema and mild swelling extending from the ankle to the tarsals • 3. Erythema and moderate swelling extending from the ankle to the metatarsal joints • 4. Erythema and severe swelling encompass the ankle, foot, and digits

[4] = system: DR4 transgenic mice, EAE induced by MOG; experiment: Experimental autoimmune encephalomyelitis (EAE) mouse model for multiple sclerosis; format: in vivo; details: compared to solvent as control; s.c.
Protocol: EAE is induced in DR4 transgenic mice by injection of myelin oligodendrocyte glycoprotein (MOG) as described by Ito et al. (1996). After disease onset, mice are treated with compounds and studied as below:
Disease Score • 1. Tail atony • 2. Hind limb weakness • 3. Hind limb paralysis • 4. Hind limb paralysis and fore limb weakness or paralysis • 5. Moribund

Cathepsin L = Cathepsin L (Homo sapiens, UniProt P07711)
Cathepsin L, sequence (P07711 114-333): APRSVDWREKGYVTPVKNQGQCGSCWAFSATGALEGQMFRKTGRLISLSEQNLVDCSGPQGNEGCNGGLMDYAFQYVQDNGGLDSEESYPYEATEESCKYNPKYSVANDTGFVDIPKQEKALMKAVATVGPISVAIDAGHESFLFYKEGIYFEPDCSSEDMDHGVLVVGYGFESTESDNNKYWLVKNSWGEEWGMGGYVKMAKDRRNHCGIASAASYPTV

Row | Compound | % Reduction of response to HEL [1] [%] | % Reduction of response to PPD(HEL) [1] [%] | % Reduction of response to OVA [2] [%] | % Reduction of response to PPD(OVA) [2] [%] | efficacy in the CIA mouse model for rheumatoid arthritis [3] | efficacy in the EAE mouse model for multiple sclerosis prevention [4] | Stability (Arbitrary units) Cath L 4 h (Cathepsin L) [Arbitrary units]
1 | CCCC[C@H](NC(=O)[C@@H]1Cc2ccccc2CN1C(=O)[C@@H](NC(=O)[C@H](CC1CCCCC1)NC(C)=O)C1CCN(C(=N)N)CC1)C(=O)N(C)Cc1ccccc1 [Compound P74, Ac-Cha-Gpg-Tic-Nle-N(Me)Bn] (Ac-[Cha][Gly(1-amidinopiperidin-4-yl)][Tic][Nle]-{NMe(benzyl)}) | 51.6 | 12.8 | 42.5 | 5.8 | Efficacy | Efficacy | –
2 | CSCC[C@H](NC(=O)[C@@H]1Cc2ccccc2CN1C(=O)[C@@H](NC(=O)[C@H](CC1CCCCC1)NC(C)=O)C1CCN(C(=N)N)CC1)C(=O)N(CCOCCO)Cc1ccccc1 [Compound P102, Ac-Cha-Gpg-Tic-Met-N(Bn)CH2CH2OCH2CH2OH] (Ac-[Cha][Gly(1-amidinopiperidin-4-yl)][Tic]M-X2) | 41.3 | 31.2 | – | – | – | – | –
3 | CCCC[C@H](NC(=O)[C@@H]1Cc2ccccc2CN1C(=O)[C@H](CCCNC(=N)N)NC(=O)[C@H](CC1CCCCC1)NC(C)=O)C(=O)N(C)Cc1ccccc1 [Compound P71, Ac-Cha-Arg-Tic-Nle-N(Me)Bn] (Ac-[Cha]R[Tic][Nle]-{NMe(benzyl)}) | 78.1 | 62.1 | 48.8 | 21.8 | – | – | –
4 | CSCC[C@H](NC(=O)[C@@H]1Cc2ccccc2CN1C(=O)[C@H](CCCNC(=N)N)NC(=O)[C@H](CC1CCCCC1)NC(C)=O)C(=O)N1CC[C@H](c2ccccc2)[C@H]1C(N)=O [Compound P31, Ac-Cha-Arg-Tic-Met-βPhPro-NH2] (Ac-[Cha]R[Tic]M[Pro(3R-Ph)]-NH2) | – | – | – | – | – | – | 103
5 | CCCC[C@H](NC(=O)[C@@H]1Cc2ccccc2CN1C(=O)[C@@H](NC(=O)[C@H](CC1CCCCC1)NC(C)=O)C1CCN(C(=N)N)CC1)C(=O)N1CC[C@H](c2ccccc2)[C@H]1C(=O)N[C@@H](CO)c1nc(C(=O)N(C)C)c(C(C)C)o1 [Compound P53, Ac-Cha-Gpg-Tic-Nle-βPhPro-[S(oxaz)L]-NMe2] (Ac-[Cha][Gly(1-amidinopiperidin-4-yl)][Tic][Nle][Pro(3R-Ph)][X1]-NMe2) | 68.4 | 10.2 | 56.3 | 26.8 | Efficacy | Efficacy | –
6 | CCCC[C@H](NC(=O)[C@@H]1Cc2ccccc2CN1C(=O)[C@@H](NC(=O)[C@H](CC1CCCCC1)NC(C)=O)C1CCN(C(=N)N)CC1)C(=O)NCc1ccccc1 [Compound P68, Ac-Cha-Gpg-Tic-Nle-N(H)Bn] (Ac-[Cha][Gly(1-amidinopiperidin-4-yl)][Tic][Nle]-NHBn) | −3.2 | 25.1 | 95.3 | 65.9 | – | – | –
7 | CSCC[C@H](NC(=O)[C@@H]1Cc2ccccc2CN1C(=O)[C@@H](NC(=O)[C@H](CC1CCCCC1)NC(C)=O)C1CCN(C(=N)N)CC1)C(=O)N1CC[C@H](c2ccccc2)[C@H]1C(=O)N[C@@H](CO)c1nc(C(=O)N(C)C)c(C(C)C)o1 [Compound P60, Ac-Cha-Gpg-Tic-Met-βPhPro-[S(oxaz)L]-NMe2] (Ac-[Cha][Gly(1-amidinopiperidin-4-yl)][Tic]M[Pro(3R-Ph)][X1]-NMe2) | – | – | 50.3 | 28.1 | – | – | –
8 | CSCC[C@H](NC(=O)C1c2ccccc2CN1C(=O)[C@H](CCCNC(=N)N)NC(=O)[C@H](CC1CCCCC1)NC(C)=O)C(N)=O (stereo partly drawn) [Compound P12-1, Ac-Cha-Arg-Disc-Met-NH2] (Ac-[Cha]R[ξDisc]M-NH2) | – | – | – | – | – | – | 101
9 | CCCC[C@H](NC(=O)[C@@H]1Cc2ccccc2CN1C(=O)[C@H](CCCNC(=N)N)NC(=O)[C@H](CC1CCCCC1)NC(C)=O)C(=O)N1CC[C@H](c2ccccc2)[C@H]1C(=O)N[C@@H](CO)c1nc(C(=O)N(C)C)c(C(C)C)o1 [Compound P51, Ac-Cha-Arg-Tic-Nle-βPhPro-[S(oxaz)L]-NMe2] (Ac-[Cha]R[Tic][Nle][Pro(3R-Ph)][X1]-NMe2) | – | – | 43.1 | 3.5 | – | – | –
10 | CCCC[C@H](NC(=O)[C@@H]1Cc2ccccc2CN1C(=O)[C@@H](NC(=O)[C@H](CC1CCCCC1)NC(C)=O)C1CCN(C(=N)N)CC1)C(=O)NCCOCCO [Compound P70, Ac-Cha-Gpg-Tic-Nle-N(H)CH2CH2OCH2CH2OH] (Ac-[Cha][Gly(1-amidinopiperidin-4-yl)][Tic][Nle]-X3) | – | – | 56.1 | 52.3 | – | – | –
11 | CSCC[C@H](NC(=O)C1c2ccccc2CN1C(=O)[C@@H](NC(=O)[C@H](CC1CCCCC1)NC(C)=O)C1CCN(C(=N)N)CC1)C(=O)N1CC[C@H](c2ccccc2)[C@H]1C(=O)N[C@@H](CO)c1nc(C(=O)N(C)C)c(C(C)C)o1 (stereo partly drawn) [Compound P41-1, Ac-Cha-Gpg-Disc-Met-βPhPro-[S(oxaz)L]-NMe2] (Ac-[Cha][Gly(1-amidinopiperidin-4-yl)][ξDisc]M[Pro(3R-Ph)][X1]-NMe2) | – | – | 50.1 | 21.6 | – | – | –
12 | CCCC[C@H](NC(=O)[C@@H]1Cc2ccccc2CN1C(=O)[C@@H](NC(=O)[C@H](CC1CCCCC1)NC(C)=O)C1CCN(C(=N)N)CC1)C(=O)N(CCOCCO)Cc1ccccc1 [Compound P101, Ac-Cha-Gpg-Tic-Nle-N(Bn)CH2CH2OCH2CH2OH] (Ac-[Cha][Gly(1-amidinopiperidin-4-yl)][Tic][Nle]-X2) | 49.7 | 41.1 | – | – | – | – | –
13 | CSCC[C@H](NC(=O)[C@@H]1Cc2ccccc2CN1C(=O)[C@H](CCCNC(=N)N)NC(=O)[C@H](CC1CCCCC1)NC(C)=O)C(N)=O [Compound P1, Ac-Cha-Arg-Tic-Met-NH2] (Ac-[Cha]R[Tic]M-NH2) | – | – | – | – | – | – | 117
